This is an account of results in PubChem BioAssay (NCI).

Among the test systems are HOP-62 NSCLC; MDA-MB-435; SK-MEL-5 melanoma; SN12C renal; A549 NSCLC; HCC-2998 colon; TK-10 renal; UO-31 renal; HT29 colon; HL-60(TB) leukemia.
Assay in all cases: NCI tumour cell line growth inhibition, 48 h

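Compound exposure: 48 hours, 5 concentrations, 96-well plates. GI50 = concentration required for 50% inhibition of growth. TGI: total growth inhibition.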

As to `CC(C)CNc1nc(-c2ccccc2)nc2ccccc12`, the GI50 in the test with HOP-62 NSCLC is 17.7 µM; with MDA-MB-435 it was 18.5 µM; in the test on SK-MEL-5 melanoma, 15.2 µM; with SN12C renal, 18.4 µM; with A549 NSCLC, 15.1 µM; in the test with HCC-2998 colon, 15.9 µM. Further, the GI50 in the test with TK-10 renal was 13.6 µM; in the test on UO-31 renal it was 17.3 µM. Moreover, the TGI is 31.5 µM with HOP-62 NSCLC; 37.9 µM in the test with MDA-MB-435; 29 µM in the test on SK-MEL-5 melanoma; 38.6 µM with SN12C renal; 31.8 µM in the test with A549 NSCLC; 29.8 µM with HCC-2998 colon. The values for the TGI in the test with TK-10 renal and in the test on UO-31 renal were 26.6 µM and 50.5 µM, respectively.

As to `Cc1cc(N2CCCC2)nc(NC2CCCC(Nc3ccnc4cc(Cl)ccc34)C2)n1` (centres undefined), the GI50 was 1.32 µM in the test on HOP-62 NSCLC; 1.56 µM in the test with MDA-MB-435; 1.69 µM with SK-MEL-5 melanoma; 1.12 µM in the test with HCC-2998 colon; 2.55 µM with TK-10 renal; 1.05 µM in the test with UO-31 renal. Further, the TGI with HOP-62 NSCLC was determined as 2.95 µM; in the test on MDA-MB-435, 3.11 µM; in the test with SK-MEL-5 melanoma, 3.09 µM; with HCC-2998 colon, 2.68 µM; with TK-10 renal it was 4.56 µM; with UO-31 renal it was 2.29 µM.

In the case of `COc1ccc(-c2ccc(/C=N/n3c(COc4ccc(Cl)cc4Cl)nn(CN4CCN(C)CC4)c3=S)o2)c([N+](=O)[O-])c1`, the GI50 in the test with HOP-62 NSCLC was 29.6 µM; in the test on MDA-MB-435, 15.9 µM; in the test with SN12C renal it was 17.8 µM; in the test on A549 NSCLC it was 20.8 µM; with HT29 colon, 41.2 µM; with TK-10 renal, 2.43 µM. Also, the GI50 in the test with UO-31 renal is 26.7 µM; in the test with HL-60(TB) leukemia, 16.3 µM. The TGI in the test with HOP-62 NSCLC is 79.5 µM; with MDA-MB-435 it was 37.5 µM; in the test with SN12C renal, 41.5 µM; in the test with A549 NSCLC, over 100 µM; with HT29 colon it was over 100 µM; in the test on TK-10 renal, 9.67 µM. The TGI in the test on UO-31 renal was over 100 µM; in the test on HL-60(TB) leukemia it was 43.9 µM.

Regarding `COC(=O)C12C3C4C5C3(C#N)C1C5(C(=O)OC)C42C(=O)N(C(C)C)C(C)C` (centres undefined), the TGI with HOP-62 NSCLC, in the test on SK-MEL-5 melanoma, in the test with SN12C renal, in the test on A549 NSCLC, in the test on HCC-2998 colon and in the test with HT29 colon was over 100 µM each time. The TGI in the test with TK-10 renal is over 100 µM; in the test on UO-31 renal, over 100 µM; in the test on HL-60(TB) leukemia, over 60 µM.

Turning to `NC1CCCCC1N.O=S(=O)([O-])CCCN1CCOCC1.O=S(=O)([O-])CCCN1CCOCC1.[Pt+4]`, the GI50 in the test on HOP-62 NSCLC was over 100 µM; in the test with SK-MEL-5 melanoma, 9.83 µM; with SN12C renal it was 10.7 µM; in the test on A549 NSCLC it was 4.72 µM; in the test with HCC-2998 colon, 36.3 µM; in the test with HT29 colon, 12.8 µM. Besides, the GI50 was over 100 µM in the test with TK-10 renal, 19.3 µM in the test on UO-31 renal and 4.81 µM in the test on HL-60(TB) leukemia. The TGI is over 100 µM with HOP-62 NSCLC; 22.2 µM in the test on SK-MEL-5 melanoma; over 100 µM in the test with SN12C renal; over 100 µM in the test on A549 NSCLC; over 100 µM with HCC-2998 colon; over 100 µM with HT29 colon. Further, the TGI is over 100 µM in the test with TK-10 renal, over 100 µM with UO-31 renal and 19.7 µM in the test on HL-60(TB) leukemia.

As to `COC(=O)C12CC(c3ccccc31)C1C(=O)OC(=O)C12` (centres undefined), the TGI in the test on HOP-62 NSCLC, in the test on SK-MEL-5 melanoma, with SN12C renal, with A549 NSCLC, with HCC-2998 colon and with HT29 colon was over 100 µM throughout. Also, the TGI with TK-10 renal, in the test with UO-31 renal and in the test on HL-60(TB) leukemia was over 100 µM in each case.

As to `CCOC(=O)C1=C(Nc2ccc(Cl)cc2Cl)OC/C1=N\NS(=O)(=O)c1ccc(C)cc1`, the TGI in the test on HOP-62 NSCLC, with SK-MEL-5 melanoma, with SN12C renal, in the test on A549 NSCLC, in the test on HCC-2998 colon and in the test with HT29 colon was over 100 µM each time. The TGI with TK-10 renal, in the test on UO-31 renal and with HL-60(TB) leukemia was over 100 µM throughout.

On to `CC[Si](CC)(CC)OC[C@]1([C@@H]2COC(C)(C)O2)CC=CC(=O)O1`, for which the GI50 was 57.8 µM with HOP-62 NSCLC; 36.4 µM in the test on MDA-MB-435; 19 µM with SK-MEL-5 melanoma; 31.1 µM in the test with SN12C renal; 30.4 µM in the test on A549 NSCLC; 46.8 µM with HT29 colon. Moreover, the values for the GI50 with TK-10 renal and in the test on UO-31 renal were 24.2 µM and 34.8 µM, respectively. In addition, the TGI is over 100 µM with HOP-62 NSCLC; over 100 µM in the test with MDA-MB-435; 40 µM in the test with SK-MEL-5 melanoma; over 100 µM with SN12C renal; over 100 µM with A549 NSCLC; over 100 µM in the test on HT29 colon. The TGI in the test on TK-10 renal is 79 µM; in the test with UO-31 renal, over 100 µM.

For `Cc1cccc(C)c1NC(=O)CCc1nnc2s/c(=C\c3ccc(Cl)cc3)c(=O)n12`, the TGI in the test with HOP-62 NSCLC, with SK-MEL-5 melanoma, in the test with SN12C renal, with A549 NSCLC, with HCC-2998 colon and with HT29 colon was over 100 µM in each case. Besides, the TGI in the test with TK-10 renal, with UO-31 renal and in the test on HL-60(TB) leukemia was over 100 µM in each case.

`CN1CCCCCC(=N\O)/C(=N/O)CCCCC1`: the TGI in the test with HOP-62 NSCLC, in the test on MDA-MB-435, with SK-MEL-5 melanoma, in the test on SN12C renal, in the test on A549 NSCLC and in the test on HT29 colon was over 100 µM throughout. In addition, the TGI in the test with TK-10 renal, with UO-31 renal and in the test on HL-60(TB) leukemia was over 100 µM throughout.

Consider `O=C([O][Hg][CH2]C1COCC([CH2][Hg][O]C(=O)c2ccccc2)O1)c1ccccc1` (centres undefined), for which the GI50 was 15.3 µM in the test with HOP-62 NSCLC; 14.2 µM with MDA-MB-435; 11.9 µM with SK-MEL-5 melanoma; 7.68 µM with SN12C renal; 12.6 µM in the test on A549 NSCLC; 6.33 µM in the test with TK-10 renal. Besides, the GI50 is 1.82 µM in the test on UO-31 renal and 3.84 µM with HL-60(TB) leukemia. The TGI in the test with HOP-62 NSCLC came to 31.1 µM; in the test on MDA-MB-435, 30.9 µM; in the test with SK-MEL-5 melanoma, 24.6 µM; in the test with SN12C renal, 32.2 µM; in the test with A549 NSCLC, 27.2 µM; in the test with TK-10 renal, 31.5 µM. Besides, the TGI was 3.39 µM in the test with UO-31 renal and 13.9 µM with HL-60(TB) leukemia.
